Data published in patent US12329158B2, “Large-scale methods of uniformly coating packaging surfaces with a volatile antimicrobial to preserve food freshness” (AGROFRESH INC., priority 2013, dated 2025).
Read-outs that look alike come from different tables or passages of the source.

Tests used:
Format in all cases: cell-based
Trichophyton rubrum [1] = assay: In vitro contact assay (Example 26); conditions: 5 days at 28 C, 100% control
Method: (§1) Half-strength Potato Dextrose Agar (PDA) is amended with a mixture of one of the test compounds in acetone or methanol to a final concentration of 50, 10, 2, 0.4 or 0.08 mg/L. A 3-mL volume of the amended media is added to each well of the microtiter plate. […] The plates are sealed with a clear film and incubated inverted for 5 days at 28° C.

[2] = tested on: Trichophyton mentagrophytes; assay: In vitro contact assay (Example 26); conditions: 5 days at 28 C, 100% control
Method: as §1

Epidermophyton floccus [3] = assay: In vitro contact assay (Example 26); conditions: 5 days at 28 C, 100% control
Method: as §1

Trichophyton rubrum [4] = assay: In vitro volatile assay (Example 26); conditions: 5 days at 28 C, 100% control
Method: (§2) Volatile assay: 6-well (16.5 mL volume per well) microtiter plates are used in an in vitro inhibition assay for Compounds A and 31, and compared to other registered fungicides (5-fluorocytosine, Amphotericin B, aspofungin diacetate, Fluconazole and Itraconazole). A 7.5-mL volume of half strength PDA is added to each well. After drying, a mycelial plug (5 mm diameter) is aseptically obtained from actively growing cultures of Epidermophyton floccus, Trichophyton rubrum, or Trichophyton mentagrophytes and placed at the center of the plate with the mycelial side in contact with the agar. A Whatman #1 filter disk (Cat. No. 1001-325) is placed, in duplicate, on the underside of a polyethylene PCR plate sealing film. […] The headspace around the inoculum is then sealed inside the well by the film with the adhering disk containing the fungicide and incubated inverted for 5 days at 28° C.

[5] = tested on: Trichophyton mentagrophytes; assay: In vitro volatile assay (Example 26); conditions: 5 days at 28 C, 100% control
Method: as §2

Epidermophyton floccus [6] = assay: In vitro volatile assay (Example 26); conditions: 5 days at 28 C, 100% control
Method: as §2

Penicillium expansum = assay: Volatile MIC of Samples 1-4 (Example 19); conditions: 50 µl/disk
Alternaria alternata = assay: Volatile MIC of Samples 1-4 (Example 19); conditions: 50 µl/disk; for MIC: Alternaria alternata, read-out: MIC mg/l Alternaria alternata
Botrytis cinerea = assay: Volatile MIC of Samples 1-4 (Example 19); conditions: 50 µl/disk; for MIC: Botrytis cinerea, read-out: MIC mg/l Botrytis cinerea
Method: A 3-ml volume of full-strength Potato Dextrose Agar (PDA) is added to each well. […] Cat. No. 1001-0155) are placed on the underside of a polyethylene PCR plate sealing film. […] The acetone is permitted to evaporate for 5 minutes. The headspace around the Botrytis cinerea inoculum is then sealed inside the well by the film with the adhering disk containing the fungicide. Plates are inverted to prevent any possibility of the chemical from flaking from the disk and falling onto the inoculated agar.

Monilinia fructicola = assay: Volatile MIC of Samples 1-4 (Example 19); conditions: 50 µl/disk
Glomerella cingulata = assay: Volatile MIC of Samples 1-4 (Example 19); conditions: 50 µl/disk; first test (Table 15)
[7] = Trichophyton rubrum, 120 h, read-out: MIC (mg/L) Trichophyton rubrum
[8] = Trichophyton mentagrophytes, 120 h, read-out: MIC (mg/L) Trichophyton mentagrophytes
[9] = Epidermophyton, 120 h, read-out: MIC (mg/L) Epidermophyton floccus

Row | Compound | MIC mg/l Penicillium expansum (Penicillium expansum; repeat test (Table 16)) [mg/L] | MIC mg/l Penicillium expansum (Penicillium expansum; first test (Table 15)) [mg/L] | MIC mg/l Alternaria alternata (Alternaria alternata; first test (Table 15)) [mg/L] | MIC mg/l Botrytis cinerea (Botrytis cinerea; first test (Table 15)) [mg/L] | MIC mg/l Botrytis cinerea (Botrytis cinerea; repeat test (Table 16)) [mg/L] | MIC mg/l Alternaria alternata (Alternaria alternata; repeat test (Table 16)) [mg/L] | MIC mg/l Monilinia fructicola (Monilinia fructicola; repeat test (Table 16)) [mg/L] | further results
1 | CCC(C)n1ncn(-c2ccc(N3CCN(c4ccc(OCC5COC(Cn6cncn6)(c6ccc(Cl)cc6Cl)O5)cc4)CC3)cc2)c1=O (stereo not shown) [Itraconazole] |  |  |  |  |  |  |  | MIC (Trichophyton rubrum [1]; [7]): > 50 mg/L; MIC [2, 8]: > 50 mg/L; MIC (Epidermophyton floccus [3]; [9]): > 50 mg/L; MIC (Trichophyton rubrum [4]; [7]): > 50 mg/L; MIC [5, 8]: > 50 mg/L; MIC (Epidermophyton floccus [6]; [9]): > 50 mg/L
2 | Fc1ccc2c(c1)COB2OCCOB1OCc2cc(F)ccc21 [Sample 1] | 8.9 |  |  |  |  |  |  | MIC (Penicillium expansum; Penicillium expansum, first test (Table 15), read-out: MIC mg/l Penicillium expansum): 8.9 mg/L; MIC (Alternaria alternata; first test (Table 15)): 22 mg/L; MIC (Alternaria alternata; repeat test (Table 16)): > 2.2 mg/L; MIC (Botrytis cinerea; first test (Table 15)): < 0.6 mg/L; MIC (Botrytis cinerea; repeat test (Table 16)): 0.6 mg/L; MIC (Monilinia fructicola; Monilinia fructicola, repeat test (Table 16), read-out: MIC mg/l Monilinia fructicola): 2.2 mg/L
3 | c1ccc2c(c1)COB2OCCOB1OCc2ccccc21 [Sample 2] | 8.9 | 8.9 | 8.9 | <0.6 | 2.2 |  |  | MIC mg/l Glomerella cingulata (Glomerella cingulata): 142.9 mg/L; MIC mg/l Monilinia fructicola (Monilinia fructicola; first test (Table 15)): 35.7 mg/L
4 | CC(C)(OB1OCc2cc(F)ccc21)C(C)(C)OB1OCc2cc(F)ccc21 [Sample 3] | 8.9 | 4.5 | 2.2 | <0.6 | 1.1 | >2.2 | 1.1 | 
5 | CC(COB1OCc2cc(F)ccc21)OB1OCc2cc(F)ccc21 (stereo not shown) [Sample 4] | 8.9 | 8.9 | 1.1 | <0.6 | 0.6 | >2.2 | 1.1 | 
6 | Caspofungin diacetate |  |  |  |  |  |  |  | MIC (mg/L) Trichophyton rubrum (Trichophyton rubrum [1]): 10.0 mg/L; MIC (mg/L) Trichophyton mentagrophytes [2]: 50.0 mg/L; MIC (mg/L) Epidermophyton floccus (Epidermophyton floccus [3]): 2.0 mg/L; MIC (mg/L) Trichophyton rubrum (Trichophyton rubrum [4]): >50 mg/L; MIC (mg/L) Trichophyton mentagrophytes [5]: >50 mg/L; MIC (mg/L) Epidermophyton floccus (Epidermophyton floccus [6]): >50 mg/L
